According to PubChem BioAssay (NCI):
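Grown in 96-well plates, cells were treated for 48 hours with each compound at five concentrations. Insufficient inhibition: endpoint recorded as highest concentration tested. Here, GI50 denotes the concentration required for 50% inhibition of growth. TGI denotes the concentration required for complete inhibition of growth.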

Experiments:
Assay in all cases: DTP human tumour cell line panel, 48 h
A498 renal = test system: A498 renal
A549 NSCLC = test system: A549 NSCLC
HL-60(TB) leukemia = test system: HL-60(TB) leukemia
HOP-92 NSCLC = test system: HOP-92 NSCLC
LOX IMVI melanoma = test system: LOX IMVI melanoma
MALME-3M melanoma = test system: MALME-3M melanoma
RPMI-8226 leukemia = test system: RPMI-8226 leukemia
SF-268 CNS = test system: SF-268 CNS
SF-539 CNS = test system: SF-539 CNS
SNB-19 CNS = test system: SNB-19 CNS

`Cc1cc(Cl)ccc1Nc1nc(C(F)(F)F)ccc1C(=O)N1CCN(c2cccc(Cl)c2)CC1` was tested, and the GI50 (A498 renal) was 37.1 µM, the TGI (A498 renal) was > 100 µM and the GI50 (A549 NSCLC) was > 100 µM. For the same compound, the TGI (A549 NSCLC) was > 100 µM, the GI50 (HL-60(TB) leukemia) was 69.6 µM and the TGI (HL-60(TB) leukemia) was > 100 µM. For the same compound, the GI50 (HOP-92 NSCLC) was 73.4 µM, the TGI (HOP-92 NSCLC) was > 100 µM and the GI50 (LOX IMVI melanoma) was > 100 µM. For the same compound, the TGI (LOX IMVI melanoma) was > 100 µM, the GI50 (MALME-3M melanoma) was > 100 µM and the TGI (MALME-3M melanoma) was > 100 µM. The GI50 (RPMI-8226 leukemia) was 37.2 µM, the TGI (RPMI-8226 leukemia) was > 100 µM and the GI50 (SF-268 CNS) was > 100 µM. For the same compound, the TGI (SF-268 CNS) was > 100 µM, the GI50 (SF-539 CNS) was > 100 µM and the TGI (SF-539 CNS) was > 100 µM. For the same compound, the GI50 (SNB-19 CNS) was > 100 µM and the TGI (SNB-19 CNS) was > 100 µM.

Compound `CCOc1cc(-c2ccc[nH]2)[nH]c1/C=C1\N=C(C)C(C(=O)OC)=C1C` has a GI50 (A498 renal) of 0.47 µM, a TGI (A498 renal) of 1.92 µM and a GI50 (A549 NSCLC) of 0.0531 µM. The TGI (A549 NSCLC) was 0.58 µM, the GI50 (HL-60(TB) leukemia) was 0.0235 µM and the TGI (HL-60(TB) leukemia) was 1.69 µM. For the same compound, the GI50 (HOP-92 NSCLC) was 0.0148 µM, the TGI (HOP-92 NSCLC) was 0.049 µM and the GI50 (LOX IMVI melanoma) was 0.0102 µM. For the same compound, the TGI (LOX IMVI melanoma) was 0.0381 µM, the GI50 (MALME-3M melanoma) was 0.216 µM and the TGI (MALME-3M melanoma) was 4.3 µM. For the same compound, the GI50 (RPMI-8226 leukemia) was 0.0216 µM, the TGI (RPMI-8226 leukemia) was 0.0898 µM and the GI50 (SF-268 CNS) was 0.0526 µM. It also gave a TGI (SF-268 CNS) of 1.81 µM, a GI50 (SF-539 CNS) of 0.059 µM and a TGI (SF-539 CNS) of 0.968 µM. It also gave a GI50 (SNB-19 CNS) of 0.239 µM and a TGI (SNB-19 CNS) of 2.91 µM.

With `COc1cc(/C=C(\C#N)C(N)=C(C#N)C#N)cc(O)c1O` the TGI (A498 renal) was > 100 µM, the TGI (A549 NSCLC) was > 100 µM and the TGI (HL-60(TB) leukemia) was > 81.5 µM. The TGI (HOP-92 NSCLC) was > 100 µM, the TGI (LOX IMVI melanoma) was > 100 µM and the TGI (MALME-3M melanoma) was > 100 µM. The TGI (RPMI-8226 leukemia) was > 100 µM, the TGI (SF-268 CNS) was > 100 µM and the TGI (SF-539 CNS) was > 100 µM. The TGI (SNB-19 CNS) was > 100 µM.

With `COC(=O)/C(=N/NC(N)=O)C(C(=O)OC)C(=O)C(=O)Nc1ccc(Cl)cc1` (centres undefined) the TGI (A498 renal) was > 100 µM, the TGI (A549 NSCLC) was > 100 µM and the TGI (HL-60(TB) leukemia) was > 100 µM. For the same compound, the TGI (HOP-92 NSCLC) was > 100 µM, the TGI (LOX IMVI melanoma) was > 100 µM and the TGI (MALME-3M melanoma) was > 100 µM. The TGI (RPMI-8226 leukemia) was > 100 µM, the TGI (SF-268 CNS) was > 100 µM and the TGI (SF-539 CNS) was > 100 µM. For the same compound, the TGI (SNB-19 CNS) was > 100 µM.

In the case of `O=c1[nH]c2ccccc2n1-c1n[nH]c2ccccc12`, the GI50 (A498 renal) was 51.3 µM, the TGI (A498 renal) was > 100 µM and the GI50 (A549 NSCLC) was 30.8 µM. The TGI (A549 NSCLC) was > 100 µM, the GI50 (HL-60(TB) leukemia) was 12.1 µM and the TGI (HL-60(TB) leukemia) was 43.2 µM. The GI50 (HOP-92 NSCLC) was 4.5 µM, the TGI (HOP-92 NSCLC) was 58.2 µM and the GI50 (LOX IMVI melanoma) was 17.4 µM. For the same compound, the TGI (LOX IMVI melanoma) was 52.5 µM, the GI50 (MALME-3M melanoma) was 26.3 µM and the TGI (MALME-3M melanoma) was 82.9 µM. It also gave a GI50 (RPMI-8226 leukemia) of 17.6 µM, a TGI (RPMI-8226 leukemia) of 64.6 µM and a GI50 (SF-268 CNS) of 25.1 µM. The TGI (SF-268 CNS) was > 100 µM, the GI50 (SF-539 CNS) was 56.9 µM and the TGI (SF-539 CNS) was > 100 µM. The GI50 (SNB-19 CNS) was 56.6 µM and the TGI (SNB-19 CNS) was > 100 µM.

For `O=C(Nc1ccccc1C(=O)N/N=C(\c1ccccc1)c1ccccn1)c1ccc(F)cc1`, the GI50 (A498 renal) was 1.37 µM, the TGI (A498 renal) was 9.43 µM and the GI50 (A549 NSCLC) was 0.451 µM. For the same compound, the TGI (A549 NSCLC) was > 100 µM, the GI50 (HL-60(TB) leukemia) was 0.297 µM and the TGI (HL-60(TB) leukemia) was 2.01 µM. For the same compound, the GI50 (HOP-92 NSCLC) was 1.42 µM, the TGI (HOP-92 NSCLC) was > 100 µM and the GI50 (LOX IMVI melanoma) was 0.247 µM. The TGI (LOX IMVI melanoma) was > 100 µM, the GI50 (MALME-3M melanoma) was 0.767 µM and the TGI (MALME-3M melanoma) was > 100 µM. The GI50 (RPMI-8226 leukemia) was 0.51 µM, the TGI (RPMI-8226 leukemia) was > 100 µM and the GI50 (SF-268 CNS) was 0.364 µM. The TGI (SF-268 CNS) was > 100 µM, the GI50 (SF-539 CNS) was 0.298 µM and the GI50 (SNB-19 CNS) was 0.502 µM. For the same compound, the TGI (SNB-19 CNS) was > 100 µM.

`CCCCCCCCCCCCCc1nn[nH]n1` was tested, and the TGI (A498 renal) was 32.2 µM, the TGI (A549 NSCLC) was 40.7 µM and the TGI (HL-60(TB) leukemia) was 39.9 µM. It also gave a TGI (HOP-92 NSCLC) of 29.3 µM, a TGI (LOX IMVI melanoma) of 35.4 µM and a TGI (MALME-3M melanoma) of 33.5 µM. For the same compound, the TGI (RPMI-8226 leukemia) was 64.2 µM, the TGI (SF-268 CNS) was 40.5 µM and the TGI (SF-539 CNS) was 32.2 µM. The TGI (SNB-19 CNS) was 33 µM.

In the case of `COc1ccccc1NC(=O)C(CC(C(=O)Nc1ccccc1OC)/C(C)=N/Nc1ccc([N+](=O)[O-])cc1[N+](=O)[O-])/C(C)=N/Nc1ccc([N+](=O)[O-])cc1[N+](=O)[O-]` (centres undefined), the TGI (A498 renal) was > 100 µM, the TGI (A549 NSCLC) was > 100 µM and the TGI (HL-60(TB) leukemia) was > 100 µM. The TGI (HOP-92 NSCLC) was > 100 µM, the TGI (LOX IMVI melanoma) was > 100 µM and the TGI (MALME-3M melanoma) was > 100 µM. The TGI (RPMI-8226 leukemia) was > 100 µM, the TGI (SF-268 CNS) was > 100 µM and the TGI (SF-539 CNS) was > 100 µM. The TGI (SNB-19 CNS) was > 100 µM.

`O=C(NCCCCCCCNC(=O)OCc1ccc2c(Cl)cc(Cl)c(O)c2n1)OCc1ccc2c(Cl)cc(Cl)c(O)c2n1` gave a GI50 (A498 renal) of 1.48 µM, a TGI (A498 renal) of 2.89 µM and a GI50 (A549 NSCLC) of 1.85 µM. It also gave a TGI (A549 NSCLC) of 3.76 µM, a GI50 (HL-60(TB) leukemia) of 0.47 µM and a TGI (HL-60(TB) leukemia) of 1.97 µM. For the same compound, the GI50 (HOP-92 NSCLC) was 1.07 µM, the TGI (HOP-92 NSCLC) was 2.71 µM and the GI50 (LOX IMVI melanoma) was 0.187 µM. The TGI (LOX IMVI melanoma) was 0.379 µM, the GI50 (MALME-3M melanoma) was 1.2 µM and the TGI (MALME-3M melanoma) was 2.53 µM. The GI50 (RPMI-8226 leukemia) was 0.247 µM, the TGI (RPMI-8226 leukemia) was 0.735 µM and the GI50 (SF-268 CNS) was 1.28 µM. For the same compound, the TGI (SF-268 CNS) was 2.78 µM, the GI50 (SF-539 CNS) was 0.414 µM and the TGI (SF-539 CNS) was 1.48 µM. For the same compound, the GI50 (SNB-19 CNS) was 1.59 µM and the TGI (SNB-19 CNS) was 3.06 µM.

With `O=C(Nc1cccc(NC(=O)c2cc(=O)c3ccccc3o2)n1)c1cc(=O)c2ccccc2o1` the TGI (A498 renal) was > 100 µM, the TGI (A549 NSCLC) was > 100 µM and the TGI (HL-60(TB) leukemia) was > 100 µM. The TGI (HOP-92 NSCLC) was 52.7 µM, the TGI (LOX IMVI melanoma) was > 100 µM and the TGI (MALME-3M melanoma) was > 100 µM. The TGI (RPMI-8226 leukemia) was 81.3 µM, the TGI (SF-268 CNS) was > 100 µM and the TGI (SF-539 CNS) was > 100 µM. The TGI (SNB-19 CNS) was > 100 µM.

In the case of `CCOc1ccc(C(CN2CCOCC2)C(C)=O)cc1OC` (centres undefined), the TGI (A498 renal) was 59 µM, the TGI (A549 NSCLC) was 51.7 µM and the TGI (HL-60(TB) leukemia) was 17 µM. For the same compound, the TGI (HOP-92 NSCLC) was 35.7 µM, the TGI (LOX IMVI melanoma) was 31.1 µM and the TGI (MALME-3M melanoma) was 37.5 µM. For the same compound, the TGI (RPMI-8226 leukemia) was 83.5 µM, the TGI (SF-268 CNS) was 41 µM and the TGI (SF-539 CNS) was 32.8 µM. It also gave a TGI (SNB-19 CNS) of 32 µM.

With `CC(NC(=O)c1ccccc1)(C(=O)O)C(=O)O` the TGI (A498 renal) was > 100 µM, the TGI (A549 NSCLC) was > 100 µM and the TGI (HL-60(TB) leukemia) was > 100 µM. For the same compound, the TGI (HOP-92 NSCLC) was > 100 µM, the TGI (LOX IMVI melanoma) was > 100 µM and the TGI (MALME-3M melanoma) was > 100 µM. The TGI (RPMI-8226 leukemia) was > 100 µM, the TGI (SF-268 CNS) was > 100 µM and the TGI (SF-539 CNS) was > 100 µM. The TGI (SNB-19 CNS) was > 100 µM.

With `O=S(=O)(c1ccc(O)c(C=Nc2ccc(Cl)cc2)c1)c1ccc(O)c(C=Nc2ccc(Cl)cc2)c1` the TGI (A498 renal) was > 100 µM, the TGI (A549 NSCLC) was > 100 µM and the TGI (HL-60(TB) leukemia) was > 100 µM. The TGI (HOP-92 NSCLC) was > 100 µM, the TGI (LOX IMVI melanoma) was > 100 µM and the TGI (MALME-3M melanoma) was > 100 µM. The TGI (RPMI-8226 leukemia) was > 100 µM, the TGI (SF-268 CNS) was > 100 µM and the TGI (SF-539 CNS) was > 100 µM. For the same compound, the TGI (SNB-19 CNS) was > 100 µM.
